Among the test systems are SN12C; LOX IMVI; CAKI-1; A498; OVCAR-8; SNB-19; Malme-3M; SK-MEL-5; MOLT-4; HCT-15; UACC-257; NCI-H226; RXF 393; SF-539; NCI-H23; M14; MCF7; OVCAR-3; EKVX; HT-29.
What all share (experiment): NCI tumour cell line growth inhibition, 48 h

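Cultured in 96-well plates, cells were exposed to test compound for 48 hours across five concentrations. GI50 = concentration required for 50% inhibition of growth.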 The source made the active and inactive calls. Rule as the data show it: active = GI50 up to about 1.1 µM and inactive = higher. Bounds are passed on as bounds.

With `CC(=O)OC1CCC2(C)C(=CCC3C2CCC2(C)C3CC3OC4(CCC(C)CN4)C(C)C32)C1` (stereo not drawn), the GI50 with SN12C, in the assay with LOX IMVI, in the assay on CAKI-1, in the assay on A498, in the assay on OVCAR-8 and in the assay on SNB-19 was > 100 µM (inactive) in each case. The GI50 was > 100 µM (inactive) in the assay with Malme-3M; > 100 µM (inactive) in the assay on SK-MEL-5; > 100 µM (inactive) with MOLT-4; > 100 µM in the assay with HCT-15; > 100 µM (inactive) with UACC-257; > 100 µM (inactive) in the assay on NCI-H226. The GI50 in the assay with RXF 393, in the assay with SF-539, in the assay with NCI-H23, in the assay with M14, with MCF7 and with OVCAR-3 was > 100 µM (inactive) throughout. Moreover, the GI50 with EKVX and in the assay on HT-29 was > 100 µM (inactive) each time.
Consider `CC(C)(C)c1cc(C2COC(=O)COCCOCC(=O)OCCOCCO2)cc(C(C)(C)C)c1O` (stereo not drawn), for which the GI50 is 21.8 µM (inactive) in the assay with SN12C; 18.7 µM (inactive) with LOX IMVI; 18 µM (inactive) in the assay on CAKI-1; > 80.5 µM (inactive) with A498; 41.6 µM (inactive) with OVCAR-8; > 100 µM (inactive) with SNB-19. The GI50 was > 100 µM (inactive) in the assay with Malme-3M; > 100 µM (inactive) with SK-MEL-5; > 100 µM (inactive) with MOLT-4; 50.2 µM in the assay with HCT-15; > 71.6 µM (inactive) in the assay with UACC-257; > 100 µM (inactive) with NCI-H226. Besides, the GI50 with RXF 393 is 23.1 µM (inactive); with SF-539, > 82.8 µM (inactive); with NCI-H23 it was 42.7 µM (inactive); in the assay with M14 it was 42.1 µM (inactive); in the assay on MCF7 it was > 100 µM (inactive); in the assay on OVCAR-3, > 100 µM (inactive). Moreover, the GI50 is > 95.1 µM (inactive) in the assay with EKVX and 37.2 µM (inactive) in the assay with HT-29.
In the case of `c1ccc2cc3c(cc2c1)OP1(Oc2cccc4cccnc24)(O3)Oc2cc3ccccc3cc2O1`, the GI50 in the assay on SN12C is 14.8 µM (inactive); in the assay with LOX IMVI it was 3.72 µM (inactive); in the assay on CAKI-1, 4.88 µM (inactive); in the assay with A498 it was 18.2 µM (inactive); with OVCAR-8, 3.56 µM (inactive); in the assay with SNB-19, 24.3 µM (inactive). The GI50 with Malme-3M was 7.21 µM (inactive); in the assay with SK-MEL-5, 3.17 µM (inactive); with MOLT-4, 1.57 µM (inactive); with HCT-15, 3.05 µM; in the assay with UACC-257, 2.69 µM (inactive); with NCI-H226, 9.89 µM (inactive). Further, the GI50 is 7.29 µM (inactive) in the assay with RXF 393; 6.15 µM (inactive) in the assay with SF-539; 2.71 µM (inactive) in the assay with NCI-H23; 1.13 µM (inactive) with MCF7; 1.58 µM (inactive) in the assay with OVCAR-3; 3.37 µM (inactive) with EKVX. Besides, in the assay on HT-29, the GI50 was 2.9 µM (inactive).
Consider `CCOC(=O)C[n+]1ccc2c([nH]c3cc(OC)ccc32)c1C`, for which the GI50 with SN12C was > 81.5 µM (inactive); with LOX IMVI it was 71.8 µM (inactive); in the assay on CAKI-1, > 100 µM (inactive); with A498, > 81.5 µM (inactive); in the assay on OVCAR-8, > 87.1 µM (inactive); with SNB-19, > 100 µM (inactive). The GI50 in the assay with Malme-3M is > 100 µM (inactive); in the assay on SK-MEL-5, > 77.8 µM (inactive); with MOLT-4 it was > 67 µM (inactive); in the assay with HCT-15 it was > 100 µM; with UACC-257 it was > 100 µM (inactive); in the assay with NCI-H226, 36.8 µM (inactive). The GI50 is > 100 µM (inactive) in the assay with RXF 393; > 100 µM (inactive) with SF-539; > 100 µM (inactive) in the assay on NCI-H23; > 95.5 µM (inactive) in the assay with MCF7; > 79.1 µM (inactive) in the assay on OVCAR-3; > 100 µM (inactive) with EKVX. Besides, the GI50 in the assay on HT-29 is > 100 µM (inactive).
On to `Cc1ccc(OP2(=O)Oc3ccc4ccccc4c3CN2c2ccc(Cl)cc2)cc1C` (stereo not drawn), for which the GI50 in the assay on SN12C, with LOX IMVI, with CAKI-1, with A498, in the assay on OVCAR-8 and with SNB-19 was > 100 µM (inactive) in each case. Moreover, the GI50 with Malme-3M was > 100 µM (inactive); in the assay with SK-MEL-5, > 100 µM (inactive); in the assay with MOLT-4, > 100 µM (inactive); in the assay on HCT-15 it was > 100 µM; in the assay with UACC-257, > 100 µM (inactive); in the assay on NCI-H226, > 100 µM (inactive). Besides, the GI50 in the assay on RXF 393, with SF-539, in the assay on NCI-H23, in the assay with MCF7, with OVCAR-3 and in the assay with EKVX was > 100 µM (inactive) each time. Also, the GI50 with HT-29 is > 100 µM (inactive).
Regarding `S=C(NCCCCCCNC(=S)Nc1c2ccccc2nc2ccccc12)Nc1c2ccccc2nc2ccccc12`, the GI50 was > 83.8 µM (inactive) in the assay with SN12C; 72.4 µM (inactive) in the assay with LOX IMVI; > 100 µM (inactive) with CAKI-1; > 91.8 µM (inactive) in the assay with A498; 89.9 µM (inactive) in the assay with OVCAR-8; > 83 µM (inactive) with SNB-19. In addition, the GI50 in the assay on Malme-3M is > 100 µM (inactive); in the assay on SK-MEL-5, > 93.1 µM (inactive); with MOLT-4, 32.4 µM (inactive); with HCT-15, 76.4 µM; with UACC-257, > 90.8 µM (inactive); with NCI-H226, 10.8 µM (inactive). For the same molecule, the GI50 in the assay on RXF 393 was > 100 µM (inactive); in the assay on SF-539, 70.1 µM (inactive); in the assay with NCI-H23, > 100 µM (inactive); in the assay on MCF7, 49 µM (inactive); in the assay on OVCAR-3, > 90.2 µM (inactive); in the assay with EKVX, > 100 µM (inactive). Moreover, the GI50 in the assay with HT-29 was 54.5 µM (inactive).
Regarding `CSCSCC(N)CO.Cc1[nH]c(=O)[nH]c(=O)c1/C=C/C(=O)O`, the GI50 in the assay with SN12C is > 625 µM (inactive); with LOX IMVI, > 625 µM (inactive); with CAKI-1, 624 µM (inactive); in the assay with A498 it was > 625 µM (inactive); in the assay on OVCAR-8 it was 492 µM (inactive); with SNB-19, > 625 µM (inactive). Further, the GI50 in the assay with Malme-3M was > 625 µM (inactive); in the assay on SK-MEL-5 it was > 625 µM (inactive); with MOLT-4 it was 590 µM (inactive); in the assay with HCT-15, > 625 µM; in the assay with UACC-257, > 625 µM (inactive); in the assay on NCI-H226 it was > 625 µM (inactive). The GI50 in the assay on RXF 393, with SF-539, in the assay on NCI-H23, with MCF7, with OVCAR-3 and in the assay on EKVX was > 625 µM (inactive) throughout. In addition, in the assay with HT-29, the GI50 is > 625 µM (inactive).
For `COc1ccccc1-c1cc(O)c2c(C)ccnc2n1`, the GI50 with SN12C is 41 µM (inactive); in the assay on LOX IMVI, 37.9 µM (inactive); in the assay with CAKI-1, 33 µM (inactive); in the assay on A498 it was 27.6 µM (inactive); with OVCAR-8, 43.6 µM (inactive); with SNB-19 it was 26.3 µM (inactive). Besides, the GI50 in the assay on Malme-3M is 39 µM (inactive); with MOLT-4 it was 31.7 µM (inactive); in the assay on HCT-15 it was 28.4 µM; in the assay with UACC-257 it was 47.9 µM (inactive); in the assay with NCI-H226 it was 15.8 µM (inactive); with RXF 393 it was 29.7 µM (inactive). The GI50 was 30.8 µM (inactive) in the assay on SF-539; 29.9 µM (inactive) in the assay on NCI-H23; 42.4 µM (inactive) with M14; 26.5 µM (inactive) in the assay on MCF7; 37 µM (inactive) with EKVX; 33.1 µM (inactive) in the assay with HT-29.

(Values after ChEMBL document CHEMBL1201862, “PubChem BioAssay data set” (2004).)
